The supplement of paper PMC10307832

Key:
Experiment in all cases: relative viability (nuclei count vs DMSO), 5 days (fraction); higher = more cells survive
NCI-H2023 = test system: NCI-H2023
How it was run: (§1)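 Each reported value is a median over duplicate plates. It expresses relative viability: treated-well nuclei count divided by vehicle-well nuclei count. Lung cancer cell lines in 1536-well plates were dosed by pin tool a day after seeding, alone with one drug or with a fixed anchor-drug dose plus five library-drug doses (not always all listed) in √10 steps, and nuclei were counted after 5 days.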

NCI-H2009 = test system: NCI-H2009
How it was run: as §1

HARA = test system: HARA
How it was run: as §1

COR-L23 = test system: COR-L23
How it was run: as §1

SK-LU-1 = test system: SK-LU-1
How it was run: as §1

NCI-H1793 = test system: NCI-H1793
How it was run: as §1

A-427 = test system: A-427
How it was run: as §1

NCI-H1734 = test system: NCI-H1734
How it was run: as §1

HCC-15 = test system: HCC-15
How it was run: as §1

HCC-366 = test system: HCC-366
How it was run: as §1

HCC-78 = test system: HCC-78
How it was run: as §1

NCI-H2228 = test system: NCI-H2228
How it was run: as §1

NCI-H1993 = test system: NCI-H1993
How it was run: as §1

LC-2-ad = test system: LC-2-ad
How it was run: as §1

NCI-H1944 = test system: NCI-H1944
How it was run: as §1

NCI-H838 = test system: NCI-H838
How it was run: as §1

EMC-BAC-2 = test system: EMC-BAC-2
How it was run: as §1

NCI-H23 = test system: NCI-H23
How it was run: as §1

NCI-H2126 = test system: NCI-H2126
How it was run: as §1

ABC-1 = test system: ABC-1
How it was run: as §1

UMC-11 = test system: UMC-11
How it was run: as §1

NCI-H2405 = test system: NCI-H2405
How it was run: as §1

## C=C1C(=O)O[C@@H](CCCCCCCC)[C@@H]1C(=O)O [C-75] + Cc1nc(NC(=O)N2CCC[C@H]2C(N)=O)sc1-c1ccnc(C(C)(C)C(F)(F)F)c1 [Alpelisib] (partner 2 µM)
NCI-H2023; first compound 0.08 µM
  relative viability: 0.637
NCI-H2023; first compound 0.253 µM
  relative viability: 0.715
NCI-H2023; first compound 0.8 µM
  relative viability: 0.592
NCI-H2023; first compound 2.53 µM
  relative viability: 0.419
NCI-H2023; first compound 8 µM
  relative viability: 0.543
NCI-H2009; first compound 0.08 µM
  relative viability: 1.17
NCI-H2009; first compound 0.253 µM
  relative viability: 1.14
NCI-H2009; first compound 0.8 µM
  relative viability: 1.18
NCI-H2009; first compound 2.53 µM
  relative viability: 1.14
NCI-H2009; first compound 8 µM
  relative viability: 1.03
HARA; first compound 0.08 µM
  relative viability: 0.849
HARA; first compound 0.253 µM
  relative viability: 1
HARA; first compound 0.8 µM
  relative viability: 0.767
HARA; first compound 8 µM
  relative viability: 0.883
COR-L23; first compound 0.08 µM
  relative viability: 0.762
COR-L23; first compound 0.253 µM
  relative viability: 1.02
COR-L23; first compound 0.8 µM
  relative viability: 0.753
COR-L23; first compound 2.53 µM
  relative viability: 0.741
COR-L23; first compound 8 µM
  relative viability: 0.723
SK-LU-1; first compound 0.08 µM
  relative viability: 1.04
SK-LU-1; first compound 0.253 µM
  relative viability: 1.23
SK-LU-1; first compound 0.8 µM
  relative viability: 0.909
SK-LU-1; first compound 2.53 µM
  relative viability: 1.02
SK-LU-1; first compound 8 µM
  relative viability: 0.552
NCI-H1793; first compound 0.08 µM
  relative viability: 0.72
NCI-H1793; first compound 0.253 µM
  relative viability: 0.723
NCI-H1793; first compound 0.8 µM
  relative viability: 0.585
NCI-H1793; first compound 2.53 µM
  relative viability: 0.708
NCI-H1793; first compound 8 µM
  relative viability: 0.816
A-427; first compound 0.08 µM
  relative viability: 1.06
A-427; first compound 0.253 µM
  relative viability: 1.08
A-427; first compound 0.8 µM
  relative viability: 1.14
A-427; first compound 2.53 µM
  relative viability: 0.95
A-427; first compound 8 µM
  relative viability: 1.03
NCI-H1734; first compound 0.08 µM
  relative viability: 0.691
NCI-H1734; first compound 0.253 µM
  relative viability: 0.609
NCI-H1734; first compound 0.8 µM
  relative viability: 0.69
NCI-H1734; first compound 2.53 µM
  relative viability: 0.447
NCI-H1734; first compound 8 µM
  relative viability: 0.631
HCC-15; first compound 0.08 µM
  relative viability: 0.891
HCC-15; first compound 0.253 µM
  relative viability: 0.862
HCC-15; first compound 0.8 µM
  relative viability: 0.873
HCC-15; first compound 2.53 µM
  relative viability: 0.641
HCC-15; first compound 8 µM
  relative viability: 0.871
HCC-366; first compound 0.08 µM
  relative viability: 0.502
HCC-366; first compound 0.253 µM
  relative viability: 0.48
HCC-366; first compound 0.8 µM
  relative viability: 0.381
HCC-366; first compound 8 µM
  relative viability: 0.404
HCC-78; first compound 0.08 µM
  relative viability: 0.297
HCC-78; first compound 0.253 µM
  relative viability: 0.318
HCC-78; first compound 0.8 µM
  relative viability: 0.354
HCC-78; first compound 2.53 µM
  relative viability: 0.336
HCC-78; first compound 8 µM
  relative viability: 0.408
NCI-H2228; first compound 0.08 µM
  relative viability: 0.751
NCI-H2228; first compound 0.253 µM
  relative viability: 1.01
NCI-H2228; first compound 0.8 µM
  relative viability: 0.73
NCI-H2228; first compound 2.53 µM
  relative viability: 0.604
NCI-H2228; first compound 8 µM
  relative viability: 0.744
NCI-H1993; first compound 0.08 µM
  relative viability: 0.694
NCI-H1993; first compound 0.253 µM
  relative viability: 0.738
NCI-H1993; first compound 0.8 µM
  relative viability: 0.66
NCI-H1993; first compound 2.53 µM
  relative viability: 0.637
NCI-H1993; first compound 8 µM
  relative viability: 0.727
LC-2-ad; first compound 0.08 µM
  relative viability: 0.838
LC-2-ad; first compound 0.253 µM
  relative viability: 0.822
LC-2-ad; first compound 0.8 µM
  relative viability: 0.828
LC-2-ad; first compound 8 µM
  relative viability: 0.891
NCI-H1944; first compound 0.08 µM
  relative viability: 0.824
NCI-H1944; first compound 0.253 µM
  relative viability: 0.655
NCI-H1944; first compound 0.8 µM
  relative viability: 0.916
NCI-H1944; first compound 8 µM
  relative viability: 0.818
NCI-H838; first compound 0.08 µM
  relative viability: 0.949
NCI-H838; first compound 0.253 µM
  relative viability: 0.675
NCI-H838; first compound 0.8 µM
  relative viability: 0.928
NCI-H838; first compound 2.53 µM
  relative viability: 0.79
NCI-H838; first compound 8 µM
  relative viability: 0.919
EMC-BAC-2; first compound 0.08 µM
  relative viability: 0.726
EMC-BAC-2; first compound 0.253 µM
  relative viability: 0.688
EMC-BAC-2; first compound 0.8 µM
  relative viability: 0.717
EMC-BAC-2; first compound 2.53 µM
  relative viability: 0.679
EMC-BAC-2; first compound 8 µM
  relative viability: 0.726
NCI-H23; first compound 0.08 µM
  relative viability: 0.546
NCI-H23; first compound 0.253 µM
  relative viability: 0.818
NCI-H23; first compound 0.8 µM
  relative viability: 0.565
NCI-H23; first compound 2.53 µM
  relative viability: 0.618
NCI-H23; first compound 8 µM
  relative viability: 0.505
NCI-H2126; first compound 0.08 µM
  relative viability: 0.79
NCI-H2126; first compound 0.253 µM
  relative viability: 0.826
NCI-H2126; first compound 0.8 µM
  relative viability: 0.732
NCI-H2126; first compound 2.53 µM
  relative viability: 0.621
NCI-H2126; first compound 8 µM
  relative viability: 0.774
ABC-1; first compound 0.08 µM
  relative viability: 0.983
ABC-1; first compound 0.253 µM
  relative viability: 1.12
ABC-1; first compound 0.8 µM
  relative viability: 0.879
ABC-1; first compound 2.53 µM
  relative viability: 0.991
ABC-1; first compound 8 µM
  relative viability: 0.585
UMC-11; first compound 0.08 µM
  relative viability: 0.927
UMC-11; first compound 0.253 µM
  relative viability: 1.15
UMC-11; first compound 0.8 µM
  relative viability: 0.97
UMC-11; first compound 2.53 µM
  relative viability: 0.909
UMC-11; first compound 8 µM
  relative viability: 0.786
NCI-H2405; first compound 0.08 µM
  relative viability: 0.833
NCI-H2405; first compound 0.253 µM
  relative viability: 0.481
NCI-H2405; first compound 0.8 µM
  relative viability: 0.703
NCI-H2405; first compound 2.53 µM
  relative viability: 0.884
NCI-H2405; first compound 8 µM
  relative viability: 0.816
